In the assay the test system is E3D1 MECs. Put plainly: Steady-state laminin internalization, flow cytometry. The class given is cell-based, mouse. As to conditions: steady-state, continuous Rhod-Ln. The method, then:
Endocytic internalization of laminin was confirmed by multiple methods. Laminin was labeled with the pH-sensitive fluorescent label CypHer-5 (CyPher-Ln) to exclusively image internalized laminin in attached, living cells. The fluorophore CypHer-5 is non fluorescent at pH 7.4 and maximally fluorescent at pH 5.5, permitting fluorescence detection of laminin within intracellular acidic vesicles (pH 4.8-6.0). Following overnight incubation of MECs with CypHer-Ln, live cell imaging detected bright fluorescent vesicles moving rapidly within the cytoplasm (FIG. 3A). Intracellular laminin within the cytoplasm was also independently observed via removal of surface bound laminin followed by confocal imaging. MECs were exposed to 10 μg/ml Rhod-Ln for 18 hrs, trypsinized, washed with PBS/EDTA to remove surface-bound laminin, allowed to re-attach, and stained with the membrane marker FITC-concanavalin A (conA). […] This method of cell treatment permitted a quantitative, flow cytometry-based assay of laminin internalization. In this assay, cells incubated with Rhod-Ln were trypsinized, washed (as in FIG. 3B), and the remaining internal Rhod-Ln fluorescence quantified by flow cytometry. Using this assay, laminin internalization was confirmed in diverse cell types including in primary mammary epithelial cultures, mammary epithelial cell lines (E3D1, MEpG), […] fibroblasts (NIH 3T3 cells), primary astrocytes, and human cancer cell lines (breast and glioma).
To explore the dynamics of laminin internalization, steady-state time course experiments (measuring internalization in the continuous presence of labeled laminin) and pulsed time course experiments were performed. In pulsed time course experiments, the cells were exposed to exogenous Rhod-Ln at 4° C. to prevent internalization, excess unbound Rhod-Ln was washed away, and then cells were returned to 37° C. to allow synchronized internalization and trafficking to proceed. […] Following pulsed and synchronized laminin exposure, Rhod-Ln was again observed to internalize within 1 hour, but reached a maximum at 8 hours, after which the levels of internal laminin declined (FIG. 4A). After 24 hours, internal Rhod-Ln levels declined to ˜37% of the maxima, indicating degradation (MFI: 315±3.5 to 119±11.5). To determine if laminin was degraded using classical degradation pathways, pulsed time course experiments in the presence of leupeptin (lysosome inhibitor) or […] (proteasome inhibitor) were performed.
Laminin internalization could be mediated by either receptor-dependent or receptor independent mechanisms (e.g. pinocytosis). Steady-state laminin internalization was measured using flow cytometry in the presence of potential inhibitors and compared to internalization of 500S FITC-dextran, a molecule of similar molecular size to laminin known to be endocytosed by receptor-independent mechanisms. The specific inhibitor of dynamin, dynasore (Macia E et al, Dev Cell, 839-850 (2006); incorporated by reference herein), inhibited internalization of laminin by >75% (FIG. 6A). Under hypertonic sucrose, a condition known to inhibit receptor-mediated endocytosis (Heuser J E and Anderson R G, J Cell Biol 108, 389-400 (1989); incorporated by reference herein) laminin internalization was reduced by 65% (FIG. 6A). Addition of heparin, a molecule known to bind the laminin LG4-5 domain (Harrison D et al, J Biol Chem 282, 11573-11581 (2007); incorporated by reference herein), decreased laminin internalization by 69% relative to controls (FIG. 6A). […] Specifically, under steady state, laminin internalization was nearly linear throughout the 24 hour time course, whereas dextran internalization plateaued after 16 hrs.
Flow Cytometry—Cells were plated in 12 well plates at 200,000 cells/well. The following day, media was changed to serum-free media with or without 10 μg/ml rhodamine laminin or 40 μg/ml FITC-dextran (500S-Sigma-Aldrich Corp., St. Louis, Mo., USA). […]
(Flow cytometry measures light scatter and fluorescence of single cells or particles in a stream.)

In the case of “Rhod-Ln: laminin-111 labeled with NHS-rhodamine; dystroglycan binding reagent”, the “time at which internalized laminin was measurable” value is not above 1 h and the “time to plateau of laminin internalization” value was more than 30 h.

The values above are taken from patent US20170307610A1, “COMPOUNDS THAT BIND DYSTROGLYCAN AND USES THEREOF” (OREGON HEALTH & SCIENCE UNIVERSITY, priority 2014, published 2017).
